{"source": "patent US8709803B2", "about": "“Cell transport system comprising a homogeneous mixture of agarose and agarase” (Histocell, S.L., priority 2008, dated 2014)", "key": {"SK-N-MC cells [1]": {"test_system": "SK-N-MC cells", "assay": "Verification of morphology and cell density by microscopy on plates treated with laminin (FIG. 8b)", "type": "cell-based, human", "conditions": "plates with laminin vs normal plate, same number of starting cells", "description": "(§1) As a result, SK-N-MC cells were cultured in standard 24-well plates and in 24-well plates previously treated with laminin (Laminin 24-well Multiwell plates, BD) at a cell density of 300,000 cells per well and 1 ml of specific medium consisting of MEM medium supplemented with 2 mM L-glutamine, 1 mM sodium pyruvate, 0.1 mM non-essential amino acids, […] of gentamicin and 1% antibiotic at 37° C. and 5% CO2.\n(§2) The day after seeding the SK-N-MC cells in the standard 24-well plates and in 24-well plates treated with laminin, transport conditions are simulated according to the specifications described in the previous example.\nIn turn, the analysis of the cell morphology of the cultures of SK-N-MC in normal 24-well plates and 24-well plates treated with laminin shown in FIG. 8b proves that the number of cells in the culture in plates with laminin is greater than that of the culture in a normal plate despite the fact that the number of starting cells for both of them is the same, which reaffirms the results obtained from measuring the proliferation by means of MTT. The non-detection of the difference in the cell density by the proliferation assay by means of MTT can be due to the high cell confluence of both cultures."}, "SK-N-MC cells [2]": {"test_system": "SK-N-MC cells", "assay": "Proliferation assay with MTT on plates treated with laminin (FIG. 8a)", "type": "cell-based, human", "conditions": "plate treated with laminin vs standard 24-well plate", "description": "as §1, §2\nOnce the time necessary for the cells to recover from transport has elapsed, the proliferation rate of both cultures is determined by means of measuring cell proliferation at times 24 and 48 h using the MTT test described in the previous example."}}, "data": [{"substance": "laminin", "values": [{"measurement": "number of cells in the culture (microscopy)", "setting": "SK-N-MC cells [1]", "value": "greater"}, {"measurement": "proliferation rate (MTT)", "setting": "SK-N-MC cells [2]; after 24 hours in culture", "value": "an increase in the proliferation"}, {"measurement": "proliferation rate (MTT)", "setting": "SK-N-MC cells [2]; after 48 hours in culture", "value": "equal"}]}]}
